Data from patent US20140322250A1, “Peptides for the Treatment of Multiple Sclerosis and Related Diseases” (priority 2013, published 2014).
Where no end group is shown, it is not given here. [ ]: non-standard residue; d: D form.

How the values were obtained:
[1] = biological target: CCR2 (Homo sapiens, UniProt P41597); format: cell-based; conditions: for blocking CCL2 (MCP-1) chemotaxis: FIG. 3, tested at 10^−14 M; for inhibition of CCR2 (MCP-1) elicited chemotaxis: FIG. 4, 20 pM peptide 30 minutes prior, MCP-1 0.6 nM for 2 hours
From the text: Triplicate determinations were made and results are expressed as the mean plus or minus SEM. The experiment shown is a direct comparison among all RAPs. Statistical analysis was by unpaired t-test, with significance set at the p<0.01 (*) level for difference from CCL2 only chemotaxis.
Data are the average of 2 separate experiments, conducted with triplicate determinations. Data (chemotactic index) are presented as mean±SEM. The IC50 for inhibition of MCP-1 or MIP-1β was generated by a nonlinear inhibition curve fit in GraphPad Prism software, version 5.0. […] Data are presented as mean±SEM. *P<0.05, **P<0.01 vs RAP-103 untreated.
Triplicate determinations were performed and results are expressed as the mean plus or minus SEM. The experiment shown is a direct comparison among all RAPs. Statistical analysis was by unpaired t-test, with significance set at the p<0.01 (*) level for difference from CCL2 only chemotaxis.
A representative experiment is shown comprising triplicate determinations and is presented as relative fluorescence units, Mean±SEM.

[2] = test system: β-Integrin-mediated adhesion to human fibronectin; test: MCP-1 elicited adhesion of human monocytes to human fibronectin; format: cell-based; conditions: FIG. 5, 10 minutes pretreatment
Experimental: Human monocytes were treated with the indicated doses of all-D-(IDNYT) for 10 minutes prior to adherence to the β-integrin human fibronectin. Data is the average of two separate experiments, conducted with triplicate determinations. Data are presented as Mean±SEM of the normalized adherence response from two experiments. The IC50 for inhibition of MCP-1 stimulated adherence was generated using a nonlinear inhibition curve fit in GraphPad Prism Version 5.0.

[3] = test system: response to bradykinin; conditions: amounts up to 50,000 times the standard challenge of bradykinin; Stewart and Woolley 1965; cited from earlier work
[4] = 6.0 mg daily intranasal
Experimental: Their neurological examination confirmed increased deep tendon reflexes, spasticity of the lower limbs and pyramidal weakness of the legs. Therapy, consisting of 6.0 mg of Peptide T daily, was self-administered via 4 metered intranasal sprays, delivered three times daily.

[5] = Pharmacokinetic study, plasma concentration by LC-MS/MS; format: in vivo, male Sprague Dawley rat
Experimental: A pharmacokinetic study of all-D-TTNYT (SEQ ID NO:2) (RAP-103) following intravenous and oral administration was conducted at a target dose level of 1 mg/kg in the male Sprague Dawley rat. The concentration of RAP-103 in each plasma and brain sample was measured using a suitable LC-MS/MS assay. The assay used was a research grade assay (RGA-1) which was established by assessing the accuracy, precision and the linearity of the method. Plasma concentrations generated were used to evaluate the pharmacokinetic parameters of all-D-TTNYT (SEQ ID NO:2) (RAP-103).
The dose formulation was administered intravenously to some animals as a slow bolus over ca 30 s via the tail vein and to a different group of animals orally via gastric gavage at a target dose volume of 1 mL/kg, to achieve a target dose level of 1 mg/kg. The dose volume administered was calculated according to the bodyweight of the animal on the day of dosing. The weight of administered dose was recorded. […] Results expressed as ng/mL

[6] = biological target: TLR4 on human monocyte-derived immature dendritic cells (human, UniProt O00206 24-839); test: cell-based or functional assay
Chain of TLR4 on human monocyte-derived immature dendritic cells (O00206 24-839): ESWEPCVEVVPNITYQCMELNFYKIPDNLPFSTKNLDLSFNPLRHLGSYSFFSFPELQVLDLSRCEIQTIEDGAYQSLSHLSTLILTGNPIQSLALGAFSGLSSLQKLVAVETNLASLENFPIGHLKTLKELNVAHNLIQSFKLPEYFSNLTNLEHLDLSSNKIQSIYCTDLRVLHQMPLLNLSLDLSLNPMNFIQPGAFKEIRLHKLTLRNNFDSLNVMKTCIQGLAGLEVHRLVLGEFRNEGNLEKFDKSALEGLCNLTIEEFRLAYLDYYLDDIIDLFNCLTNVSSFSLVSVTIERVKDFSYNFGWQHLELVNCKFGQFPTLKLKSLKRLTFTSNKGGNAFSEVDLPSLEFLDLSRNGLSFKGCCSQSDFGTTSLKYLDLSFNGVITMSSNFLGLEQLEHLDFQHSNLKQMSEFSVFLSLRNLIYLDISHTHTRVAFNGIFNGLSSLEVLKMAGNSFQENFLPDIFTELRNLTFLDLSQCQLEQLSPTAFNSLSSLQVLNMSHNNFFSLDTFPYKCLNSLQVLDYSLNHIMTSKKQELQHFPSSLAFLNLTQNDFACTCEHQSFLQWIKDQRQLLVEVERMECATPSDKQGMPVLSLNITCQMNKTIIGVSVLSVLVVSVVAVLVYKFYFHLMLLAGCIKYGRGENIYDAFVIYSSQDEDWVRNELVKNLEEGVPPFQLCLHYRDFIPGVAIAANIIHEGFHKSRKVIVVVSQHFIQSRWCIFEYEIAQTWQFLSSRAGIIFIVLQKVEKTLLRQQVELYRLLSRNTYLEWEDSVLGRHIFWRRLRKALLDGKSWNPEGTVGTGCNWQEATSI

Chain of CCR2 (P41597 whole entry): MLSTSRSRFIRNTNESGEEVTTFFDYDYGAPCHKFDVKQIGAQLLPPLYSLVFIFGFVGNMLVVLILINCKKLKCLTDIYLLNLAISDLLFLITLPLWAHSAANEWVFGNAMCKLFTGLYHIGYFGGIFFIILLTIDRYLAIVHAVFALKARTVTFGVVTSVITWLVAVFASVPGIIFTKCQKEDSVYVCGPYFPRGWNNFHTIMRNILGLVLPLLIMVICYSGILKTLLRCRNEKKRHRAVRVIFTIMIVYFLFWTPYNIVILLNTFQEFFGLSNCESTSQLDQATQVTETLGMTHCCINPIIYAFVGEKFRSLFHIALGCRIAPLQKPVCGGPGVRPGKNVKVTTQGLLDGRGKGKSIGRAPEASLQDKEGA

## Ser-Ser-Thr-Tyr-Arg ([dS][dS][dT][dY][dR]) [SSTYR]
[1]
  blocking CCL2 (MCP-1) chemotaxis: retain potency

## Glu-Thr-Trp-Tyr-Ser ([dE][dT][dW][dY][dS]) [ETWYS]
[1]
  inhibition of CCR2 (MCP-1) elicited chemotaxis: potently block

## Ile-Asn-Asn-Tyr-Thr ([dI][dN][dN][dY][dT]) [IDNYT (SEQ ID NO:8)]
[1]
  inhibition of CCR2 (MCP-1) elicited chemotaxis: potently block

## Asn-Thr-Ser-Tyr-Arg ([dN][dT][dS][dY][dR]) [NTSYR]
[1]
  blocking CCL2 (MCP-1) chemotaxis: retain potency

## Ile-Asp-Asn-Tyr Thr ([dI][dD][dN][dY][dT]) [IDNYT (SEQ ID NO:6)]
[1]
  inhibition of CCR2 (MCP-1) elicited chemotaxis: potently block
[2]
  blocking of MCP-1 elicited adhesion: potently blocking

## Thr-Thr-Ser-Tyr-Thr ([dT][dT][dS][dY][dT]) [TTSYT]
[1]
  blocking CCL2 (MCP-1) chemotaxis: retain potency

## Asn-Thr-Arg-Tyr-Arg [NYRYR]
[1]
  inhibition of CCR2 (MCP-1) elicited chemotaxis: potently block

## all-D-bradykinin
[3]
  inhibition of the response to bradykinin or bradykinin-like effect: neither any inhibition of the response to bradykinin, or any bradykinin-like effect

## Asn-Thr-Ser-Tyr-Gly ([dN][dT][dS][dY]G) [NTSYG]
[1]
  inhibition of CCR2 (MCP-1) elicited chemotaxis: potently block

## ASTTTNYY [Peptide T]
[4]; after 2 weeks, continued to end of week 10
  patient-reported change: definite improvements
[4]; end of week 10, 65 seconds initially, one patient
  time to walk 10 meters: 15 s

## C[C@H](O)[C@@H](N)C(=O)N[C@@H](C(=O)N[C@H](CC(N)=O)C(=O)N[C@H](Cc1ccc(O)cc1)C(=O)N[C@@H](C(=O)O)[C@H](C)O)[C@H](C)O [RAP-103, all-D-TTNYT]
[5]; 1 mg/kg, rat
  time of peak levels in plasma: 10 to 15 min
[5]; intravenous 1 mg/kg, 0.5 h, individual animals
  concentration in plasma: 561 ng/mL
[5]; intravenous and oral gavage, 1 mg/kg, rat
  tolerability of dose administrations: well tolerated
[5]; male, Sprague Dawley, rat, plasma, iv, 1 mg/kg, intravenous 1 mg/kg, 0.083 h, individual animals
  level at 0.083 h: 3050 ng/mL
[5]; male, Sprague Dawley, rat, plasma, iv, 1 mg/kg, intravenous 1 mg/kg, 0.167 h, individual animals
  level at 0.167 h: 2400 ng/mL
[5]; male, Sprague Dawley, rat, plasma, iv, 1 mg/kg, intravenous 1 mg/kg, 0.25 h, individual animals
  level at 0.25 h: 2050 ng/mL
[5]; male, Sprague Dawley, rat, plasma, iv, 1 mg/kg, intravenous 1 mg/kg, 0.5 h, individual animals
  level at 0.5 h: 558 ng/mL
[5]; male, Sprague Dawley, rat, plasma, iv, 1 mg/kg, intravenous 1 mg/kg, 1 h, individual animals
  level at 1 h: 405 ng/mL

## [dT][dT][dN][dY][dT] [all-D-TTNYT (RAP-103)]
[6]
  IC50 for inhibition of LPS (100 ng/mL) induced TNFα production in human monocyte-derived iDC (FIG. 6): ~0.1 pM
